“And” between values parts separate entries of the source, which are not always exact repeats. Equal entries are not always repeated.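 Dose response: 5 concentrations. Exposure: 48 h. Format: 96-well plates. Endpoint: linear interpolation; highest concentration if not reached. GI50 is the concentration that inhibits growth by half. At the TGI there is no net growth.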
What was measured:
Assay in all cases: NCI-60 cell line screen, 48 h
[1] = test system: BT-549 breast
[2] = test system: HCT-15 colon
[3] = test system: CAKI-1 renal
[4] = test system: RPMI-8226 leukemia
[5] = test system: SNB-19 CNS
[6] = test system: 786-0 renal
[7] = test system: EKVX NSCLC
[8] = test system: RXF 393 renal
[9] = test system: COLO 205 colon
[10] = test system: PC-3 prostate

Row | Structure (SMILES) | TGI [1] | TGI [2] | TGI [3] | TGI [4] | TGI [5] | TGI [6] | TGI [7] | TGI [8] | TGI [9] | TGI [10] | GI50 [4] | GI50 [1] | GI50 [2] | GI50 [3] | GI50 [5] | GI50 [7] | GI50 [8] | GI50 [9] | GI50 [10]
1 | COC(=O)NN(C(=O)OC)c1c(-c2ccccc2)nc(SC)n1N | > 100 µM | > 100 µM | > 100 µM | > 100 µM | > 100 µM | > 100 µM | > 100 µM | > 100 µM | > 100 µM | > 100 µM |  |  |  |  |  |  |  |  | 
2 | C=C1[C@@H](O)C[C@@]23CC[C@@H]4[C@@]5(C)CC[C@@H](OC(C)=O)C(C)(C)[C@@H]5C[C@@H](OC5OC(COC(C)=O)C(O)C(O)C5O)[C@@]4(C)C2=CC[C@H]3[C@H]1C (stereo partly specified) | 21.4 µM | 27.8 µM | 26.7 µM | 8.01 µM | 17.5 µM | 18.9 µM | 25.9 µM | 18.7 µM | 4.36 µM | 13.9 µM |  |  |  |  |  |  |  |  | 
3 | C[n+]1c(-c2ccccc2)cc2/c(=C\c3ccc([N+](=O)[O-])cc3)c3ccccc3n21 | 1.67 µM | > 100 µM | > 100 µM | > 100 µM | > 36.1 µM | 18.9 µM | 44.2 µM | 19.5 µM | > 100 µM | 21.1 µM |  |  |  |  |  |  |  |  | 
4 | C=C1C(=O)OC2/C=C(\CO)C(OC(C)=O)CC(O)/C(C)=C/C(OC(=O)C(C)CC)C12 (stereo unspecified) | 36.9 µM | > 100 µM | 73.3 µM and 50.5 µM | 23.4 µM and 56.3 µM | > 100 µM | 28.8 µM and 52.9 µM | 54.5 µM and 61.5 µM | 40 µM and 49.8 µM | 28.8 µM and 24.3 µM | > 100 µM | 5.57 µM and 24.9 µM |  |  |  |  |  |  |  | 
5 | CC(=O)N/N=C1/NN(C(C)=O)C2(S1)C(=O)Nc1ccc(Br)cc12 (stereo unspecified) | > 100 µM | > 100 µM | > 100 µM | > 100 µM | > 100 µM | > 100 µM | > 100 µM | > 100 µM |  | > 100 µM |  |  |  |  |  |  |  |  | 
6 | N#Cc1nc(-c2cc([N+](=O)[O-])cc([N+](=O)[O-])c2)oc1N | > 10 µM | > 10 µM | > 10 µM | > 10 µM | > 10 µM | > 10 µM | > 10 µM | > 10 µM | > 10 µM | > 10 µM |  |  |  |  |  |  |  |  | 
7 | O=C1CCSSCCC(=O)NCCN1 | > 100 µM | > 100 µM | > 100 µM | > 100 µM | > 100 µM | > 100 µM | > 100 µM | > 100 µM | > 100 µM | > 100 µM |  |  |  |  |  |  |  |  | 
8 | COP(=O)(O)/C=C/C(NC(=O)C(Cl)(Cl)Cl)c1ccccc1 (stereo unspecified) | > 100 µM | > 100 µM | > 100 µM | > 100 µM | > 100 µM | > 100 µM | > 100 µM | > 100 µM | > 100 µM | > 100 µM |  |  |  |  |  |  |  |  | 
9 | O=C(O)C1CC(c2ccc(F)cc2)=Nc2ccc(F)cc2S1 (stereo unspecified) | > 100 µM | > 100 µM | > 100 µM | > 100 µM | > 100 µM | > 100 µM | > 100 µM | > 100 µM | > 100 µM | > 100 µM |  |  |  |  |  |  |  |  | 
10 | Cc1cc(C)c2c(=O)n(CN3CC4Nc5ccccc5C4C3)sc2n1 (stereo unspecified) | > 100 µM | 44.3 µM | 57.6 µM | > 100 µM | > 100 µM | 33.8 µM | 88.5 µM | 40.4 µM | 71.5 µM | 50.6 µM |  |  |  |  |  |  |  |  | 
11 | Cc1ccc(S(=O)(=O)N2CCSCCSCCSCCSCC2)cc1 | 44 µM | > 100 µM | 66.4 µM | > 100 µM | 47.3 µM | 40.2 µM | > 89.9 µM | > 45.9 µM | > 100 µM | > 100 µM |  |  |  |  |  |  |  |  | 
12 | COC(=O)c1c(C)cccc1/C=C1/Cc2c(C)cccc2C1=O | > 100 µM | > 100 µM | > 100 µM | 8.51 µM |  | > 100 µM | > 100 µM | > 100 µM |  | > 100 µM |  |  |  |  |  |  |  |  | 
13 | COc1ccc(/C(=N/O)c2ccccc2-c2nc3ccccc3c(=O)n2-c2ccc(S(=O)(=O)Nc3ncccn3)cc2)cc1C | 31.3 µM | 28.6 µM | > 31.6 µM | 42.9 µM | > 31.6 µM |  | > 31.6 µM | 19.8 µM | > 31.6 µM | > 31.6 µM |  |  |  |  |  |  |  |  | 
14 | O=[N+]([O-])C(=C(N1CCCCC1)N1CCCCC1)/C(Cl)=C(\Cl)Br | > 100 µM | 54.1 µM | 26.6 µM | 44.2 µM | 87.1 µM | 67.8 µM | 37.1 µM | 62.9 µM | 38.7 µM | 60.3 µM |  |  |  |  |  |  |  |  | 
15 | CCCCCCCCCC[C@H](O)[C@H]1CC[C@H]([C@H]2CC[C@H]([C@H](O)CC[C@H](O)CCCCCCC[C@@H](O)CC3=C[C@H](C)OC3=O)O2)O1 | > 100 µM | > 100 µM | > 100 µM | 10.5 µM | > 100 µM | > 100 µM | > 100 µM | 88 µM | 78.5 µM | > 100 µM |  |  |  |  |  |  |  |  | 
16 | C/C(N=Nc1nc2ccccc2s1)=C1/C=CC=CN1O | > 100 µM | > 100 µM | > 100 µM | > 100 µM | > 100 µM | > 100 µM | 6.03 µM | > 100 µM | > 100 µM | > 100 µM |  |  |  |  |  |  |  |  | 
17 | Cc1cc(-c2nc3c(O)cccc3s2)ccc1N | 58.3 µM | 79 µM | 56.1 µM | > 100 µM | 41 µM | 95.1 µM | 52.9 µM | > 100 µM | > 100 µM | 52.6 µM |  |  |  |  |  |  |  |  | 
18 | CCOC1CC(=O)c2c(Br)sc(Br)c21 (stereo unspecified) | 66.1 µM | 41.9 µM | 31 µM | 49.6 µM | 51.9 µM | 94.7 µM | 42.7 µM | 35.5 µM | 38.4 µM | 47.2 µM |  |  |  |  |  |  |  |  | 
19 | CN(C)c1nc(=NCc2ccncc2)ss1 | 44 µM | > 100 µM | > 56.3 µM | 53.1 µM | > 100 µM | 31.5 µM | > 100 µM | 92.7 µM | > 100 µM | > 63.4 µM |  |  |  |  |  |  |  |  | 
20 | Cc1ccc(S(=O)(=O)Oc2cc(N)c3c(n2)CCC3)cc1 | > 100 µM | > 100 µM | > 100 µM | > 100 µM | > 100 µM | > 100 µM | > 100 µM | > 100 µM | > 100 µM | > 100 µM |  |  |  |  |  |  |  |  | 
21 | COc1ccc2c(c1)O/C(=C\c1cccc(OCC(=O)Nc3nc4c(s3)CCCC4)c1)C2=O | > 100 µM | > 100 µM | > 100 µM | > 33.2 µM | > 100 µM | > 19.9 µM | > 100 µM | 4.48 µM | > 100 µM | > 60.1 µM | 3.41 µM | > 51.1 µM | 18.1 µM | 4.66 µM | 44.6 µM | > 66.3 µM | 2.11 µM | > 100 µM | 12.7 µM

— PubChem BioAssay (NCI)
